In US11976072B2, “Diacylglycerol kinase modulating compounds” (priority 2021, dated 2024):
Read-outs that look alike come from different tables or passages of the source.

Experiments:
human DGKα = human DGKα (Homo sapiens, UniProt P23743); test: DGKα Biochemical Activity Assay (ADP-Glo); details: recombinant DGKα 1 nM, 100 μM ATP, 18:1 DAG/POPS/octylglucoside micelles, 1 hour at 25° C.; geometric mean; read-out: HTBS DGKa 1X ATP KM IC50;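 note: luminescent detection of ADP produced as DGKα phosphorylates DAG to phosphatidic acid, IC50 from four-parameter nonlinear curve fit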
Description: Alternatively, the enzymatic activity of human DGKα was monitored in a biochemical assay in the presence or absence of compounds and using micelles containing 18:1 Diacylglycerol (DAG), 16:0-18:1 PS (POPS) and Octylglucoside as substrate. DGKα activity led to conversion of DAG and ATP to Phosphatidic Acid (PA) and ADP. Levels of ADP were monitored by bioluminescence using the ADP-Glo Kinase Assay (Promega) and were indicative of DGKα activity.
Recombinant DGKα (Carna Biosciences) in assay buffer (5 μL in 50 mM MOPS [3-(N-morpholino) propanesulfonic acid], pH 7.2; 0.0025% Triton X-100; 1 mM dithiothreitol; 5 mM MgCl2, 200 μM ATP) was added to the compound-containing plate and was incubated for 15 minutes at 25° C. […] The reaction mixture was incubated at 25° C. for 1 hour. ADP-Glo Reagent (10 μL, 10 mM Mg added) provided by the kit was added to each well and incubated at 25° C. for 40 minutes. Then, 20 μL of Kinase Detection Reagent was added and incubated at 25° C. for 40 minutes. Luciferase activity of each well was measured via luminescence on an Envision plate reader (PerkinElmer).
Least squares curve fittings were performed using a four-parameter variable slope nonlinear regression model. […] IC50 values from multiple experiments were averaged by geometric mean and the standard deviation was calculated.

[1] = test system: Jurkat NFκB-luciferase cells; test: Jurkat NFκB-Luciferase Assay; format: cell-based; details: Homo sapiens
Outline: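 Luminescence from One-Glo Ex, read 7 min post-addition, reports NFκB activation in Jurkat luciferase reporter cells. Cells, diluted to 1 million cells/ml in 10% FBS RPMI, were dispensed onto plates holding compound and washed, pre-bound antibody.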

[2] = Jurkat NFκB-luciferase cells activated with anti-CD3 antibody (OKT3), 2.5 hrs at 37° C., geometric mean, read-out: DGK NFKb Luciferase EC50

Sequence of human DGKα (P23743 whole entry): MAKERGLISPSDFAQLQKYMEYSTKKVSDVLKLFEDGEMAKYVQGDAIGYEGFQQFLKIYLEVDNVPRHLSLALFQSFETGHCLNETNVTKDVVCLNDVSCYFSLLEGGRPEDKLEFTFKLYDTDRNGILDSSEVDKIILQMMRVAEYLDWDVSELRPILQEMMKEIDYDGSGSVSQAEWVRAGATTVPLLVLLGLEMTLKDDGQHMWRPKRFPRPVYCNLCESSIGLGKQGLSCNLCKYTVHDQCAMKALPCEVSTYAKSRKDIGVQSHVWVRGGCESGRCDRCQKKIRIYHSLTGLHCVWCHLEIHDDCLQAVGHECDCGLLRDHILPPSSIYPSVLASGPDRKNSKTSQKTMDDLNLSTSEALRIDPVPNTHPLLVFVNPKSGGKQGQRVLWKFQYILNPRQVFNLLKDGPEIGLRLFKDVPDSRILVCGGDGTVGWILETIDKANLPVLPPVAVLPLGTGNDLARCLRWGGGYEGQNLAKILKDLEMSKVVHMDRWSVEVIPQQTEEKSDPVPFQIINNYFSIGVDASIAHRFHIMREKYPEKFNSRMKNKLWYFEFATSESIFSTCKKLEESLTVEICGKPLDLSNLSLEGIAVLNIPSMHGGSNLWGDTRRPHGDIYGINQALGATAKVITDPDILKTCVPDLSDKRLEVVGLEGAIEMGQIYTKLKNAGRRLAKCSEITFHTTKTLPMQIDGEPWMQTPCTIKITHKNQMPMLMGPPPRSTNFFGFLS

Structure (SMILES) | IC50 (human DGKα) | EC50 [1, 2] | EC50 ([1]; Jurkat, […], read-out: DGK NFKb Luciferase EC50 (nM))
Cc1nnc2nc(N3CCCCc4c(C#CC5(C)COC5)cccc43)c3c(F)c(F)ccc3n12 [Example 185, 6,7-Difluoro-1-methyl-5-[6-[2-(3-methyloxetan-3-yl)ethynyl]-2,3,4,5-tetrahydro-1-benzazepin-1-yl]-[1,2,4]triazolo[4,3-a]quinazoline] | 4.58 nM | 1.09 nM | 
Cc1nnc2nc(N3CCCc4c(C#CC(C)(C)n5ccnc5)cccc43)c3c(F)cccc3n12 [Example 78, 5-(5-(3-(1H-imidazol-1-yl)-3-methylbut-1-yn-1-yl)-3,4-dihydroquinolin-1(2H)-yl)-6-fluoro-1-methyl-[1,2,4]triazolo[4,3-a]quinazoline] | 41.2 nM | 7.73 nM | 
CC(F)(F)C1(C#Cc2cccc3c2COCCN3c2nc3nncn3c3ccc(F)c(F)c23)CC1 [Example 201, 6-[2-[1-(1,1-Difluoroethyl)cyclopropyl]ethynyl]-1-(6,7-difluoro-[1,2,4]triazolo[4,3-a]quinazolin-5-yl)-3,5-dihydro-2H-4,1-benzoxazepine] | 6.77 nM | 0.202 nM | 
Fc1ccc2c(c(N(CC(F)F)c3ccnc(C#CC4(C(F)(F)F)CC4)c3)nc3nncn32)c1F [Example 95, N-(2,2-difluoroethyl)-6,7-difluoro-N-(2-((1-(trifluoromethyl)cyclopropyl)ethynyl)pyridin-4-yl)-[1,2,4]triazolo[4,3-a]quinazolin-5-amine] | 7.69 nM | 2.77 nM | 
Cc1nnc2nc(N3CCCc4c(C#CC(C)(C)NC(=O)C5(C(F)(F)F)CC5)cccc43)c3c(F)cccc3n12 [Example 151, N-(4-(1-(6-fluoro-1-methyl-[1,2,4]triazolo[4,3-a]quinazolin-5-yl)-1,2,3,4-tetrahydroquinolin-5-yl)-2-methylbut-3-yn-2-yl)-1-(trifluoromethyl)cyclopropane-1-carboxamide] | 2.41 nM | 3.59 nM | 
CC(C)(C#Cc1cc(N(CC(F)F)c2nc3nncn3c3ccc(F)c(F)c23)ccn1)C(F)(F)F [Example 93, N-(2,2-difluoroethyl)-6,7-difluoro-N-(2-(4,4,4-trifluoro-3,3-dimethylbut-1-yn-1-yl)pyridin-4-yl)-[1,2,4]triazolo[4,3-a]quinazolin-5-amine] | 8.14 nM | 2.63 nM | 
Cc1nnc2nc(N3CCOCc4c3ccnc4C#CC3(C(F)F)CC3)c3c(F)cccc3n12 [Example 135, 6-((1-(difluoromethyl)cyclopropyl)ethynyl)-1-(6-fluoro-1-methyl-[1,2,4]triazolo[4,3-a]quinazolin-5-yl)-1,2,3,5-tetrahydropyrido[4,3-e][1,4]oxazepine] | 5.49 nM | 6.06 nM | 
Cc1nnc2nc(N3CCCc4c(C#Cc5cnn(C)c5)cccc43)c3c(F)cccc3n12 [Example 233, 6-fluoro-1-methyl-5-[5-[2-(1-methylpyrazol-4-yl)ethynyl]-3,4-dihydro-2H-quinolin-1-yl]-[1,2,4]triazolo[4,3-a]quinazoline] | 6.74 nM | 2.15 nM | 
Cc1nnc2nc(N3CCCc4c(C#CC(C)(C)C#N)cccc43)c3c(Cl)cccc3n12 [Example 125, 4-(1-(6-chloro-1-methyl-[1,2,4]triazolo[4,3-a]quinazolin-5-yl)-1,2,3,4-tetrahydroquinolin-5-yl)-2,2-dimethylbut-3-ynenitrile] | 16.4 nM | 2.9 nM | 
Cc1nnc2nc(N3CCCc4c(C#Cc5cncn5C)cccc43)c3cc(F)ccc3n12 [Example 232, 7-fluoro-1-methyl-5-[5-[2-(3-methylimidazol-4-yl)ethynyl]-3,4-dihydro-2H-quinolin-1-yl]-[1,2,4]triazolo[4,3-a]quinazoline] | 12.4 nM | 9.24 nM | 
Cc1nnc2nc(N3CCCCc4c(C#CC(C)(C)C#N)cccc43)c3c(F)c(F)ccc3n12 [Example 186, 4-[1-(6,7-Difluoro-1-methyl-[1,2,4]triazolo[4,3-a]quinazolin-5-yl)-2,3,4,5-tetrahydro-1-benzazepin-6-yl]-2,2-dimethyl-but-3-ynenitrile] | 6.51 nM | 2.84 nM | 
Cc1nnc2nc(N(CC(F)F)c3cc(F)cc(C#CC4CC(F)(F)C4)c3)c3c(F)c(F)ccc3n12 [Example 237, N-[3-[2-(3,3-difluorocyclobutyl)ethynyl]-5-fluoro-phenyl]-N-(2,2-difluoroethyl)-6,7-difluoro-1-methyl-[1,2,4]triazolo[4,3-a]quinazolin-5-amine] | 8.31 nM | 1.26 nM | 
Cc1nnc2nc(N3CCCCc4c(C#CC5(C)CC5)cncc43)c3c(F)cccc3n12 [Example 6, 6-fluoro-1-methyl-5-(6-((1-methylcyclopropyl)ethynyl)-2,3,4,5-tetrahydro-1H-pyrido[3,4-b]azepin-1-yl)-[1,2,4]triazolo[4,3-a]quinazoline] | 44.1 nM | 0.692 nM | 
Cc1nnc2nc(N3CCCc4c(N5CCC(C)(C#N)CC5)cccc43)c3c(F)cccc3n12 [Example 155, 1-[1-(6-fluoro-1-methyl-[1,2,4]triazolo[4,3-a]quinazolin-5-yl)-3,4-dihydro-2H-quinolin-5-yl]-4-methyl-piperidine-4-carbonitrile] | 25.6 nM | 5.13 nM | 
Cc1nnc2nc(N3CCCCc4c(C#CC(C)(C)C#N)cncc43)c3cc(F)ccc3n12 [Example 4, 4-(1-(7-fluoro-1-methyl-[1,2,4]triazolo[4,3-a]quinazolin-5-yl)-2,3,4,5-tetrahydro-1H-pyrido[3,4-b]azepin-6-yl)-2,2-dimethylbut-3-ynenitrile] | 23.9 nM | 6.92 nM | 
Fc1ccc(F)c2c1c(N1CCOCc3c(C#CC4(C(F)(F)F)CC4)cccc31)nc1nncn12 [Example 112] | 3.48 nM | 0.716 nM | 
Cc1nnc2nc(N(CC(F)F)c3cc(F)cc(C#CC4CCOCC4)c3)c3c(F)cccc3n12 [Example 20, N-(2,2-difluoroethyl)-6-fluoro-N-(3-fluoro-5-((tetrahydro-2H-pyran-4-yl)ethynyl)phenyl)-1-methyl-[1,2,4]triazolo[4,3-a]quinazolin-5-amine] | 30.1 nM | 10.3 nM | 
Cc1nnc2nc(N3CCCc4c(C#Cc5cnc(C(F)(F)F)nc5)cccc43)c3c(F)cccc3n12 [Example 220, 6-fluoro-1-methyl-5-(5-((2-(trifluoromethyl)pyrimidin-5-yl)ethynyl)-3,4-dihydroquinolin-1(2H)-yl)-[1,2,4]triazolo[4,3-a]quinazoline] | 21.8 nM | 0.346 nM | 
Cc1nnc2nc(N3CCCCc4c(C#CC(C)(C)C#N)cncc43)c3c(F)c(F)ccc3n12 [Example 2, 4-(1-(6,7-difluoro-1-methyl-[1,2,4]triazolo[4,3-a]quinazolin-5-yl)-2,3,4,5-tetrahydro-1H-pyrido[3,4-b]azepin-6-yl)-2,2-dimethylbut-3-ynenitrile] | 14.8 nM | 3.13 nM | 
Cc1nnc2nc(N3CCCc4c(C#CC(C)(C)C#N)cccc43)c3c(F)c(F)ccc3n12 [Example 240, 4-[1-(6,7-difluoro-1-methyl-[1,2,4]triazolo[4,3-a]quinazolin-5-yl)-3,4-dihydro-2H-quinolin-5-yl]-2,2-dimethyl-but-3-ynenitrile] | 7.05 nM | 3.41 nM | 
Fc1cc(C#CC2(C(F)F)CC2)cc(N(CC(F)F)c2nc3nncn3c3c(Cl)cc(F)cc23)c1 [Example 47, 9-chloro-N-(2,2-difluoroethyl)-N-[3-[2-[1-(difluoromethyl)cyclopropyl]ethynyl]-5-fluoro-phenyl]-7-fluoro-[1,2,4]triazolo[4,3-a]quinazolin-5-amine] | 18.8 nM | 3.92 nM | 
CC(C)(C#Cc1cccc2c1OCCCN2c1nc2nncn2c2cccc(F)c12)C(F)(F)F [Example 123] | 31.5 nM | 0.533 nM | 
Cc1nnc2nc(N3CCN(C)Cc4c(C#CC5(C(C)(F)F)CC5)cccc43)c3c(F)cccc3n12 [Example 166, 5-[6-[2-[1-(1,1-difluoroethyl)cyclopropyl]ethynyl]-4-methyl-3,5-dihydro-2H-1,4-benzodiazepin-1-yl]-6-fluoro-1-methyl-[1,2,4]triazolo[4,3-a]quinazoline] | 17.4 nM | 15.8 nM | 
Cc1nnc2nc(N3CCCc4c(C#Cc5ccnn5C)cccc43)c3cc(F)ccc3n12 [Example 223, 7-fluoro-1-methyl-5-[5-[2-(2-methylpyrazol-3-yl)ethynyl]-3,4-dihydro-2H-quinolin-1-yl]-[1,2,4]triazolo[4,3-a]quinazoline] | 40.7 nM | 9.21 nM | 
Cc1nnc2nc(N3CCCc4c(N5CCN(S(C)(=O)=O)CC5)cccc43)c3c(F)cccc3n12 [Example 160, 6-fluoro-1-methyl-5-[5-(4-methylsulfonylpiperazin-1-yl)-3,4-dihydro-2H-quinolin-1-yl]-[1,2,4]triazolo[4,3-a]quinazoline] | 74.9 nM | 28.6 nM | 
Cc1nnc2nc(N3CCCc4c(C#CC(C)(C)C(=O)O)cccc43)c3c(F)cccc3n12 [Example 73, 4-(1-(6-fluoro-1-methyl-[1,2,4]triazolo[4,3-a]quinazolin-5-yl)-1,2,3,4-tetrahydroquinolin-5-yl)-2,2-dimethylbut-3-ynoic Acid] | 61.3 nM | 10.8 nM | 
Fc1cc(F)c2c(c1)c(N1CCCc3c(C#CC4(C(F)(F)F)CC4)cccc31)nc1nncn12 [Example 118] | 4.89 nM | 5.81 nM | 
CC(C)(O)C#Cc1cccc2c1COCCN2c1nc2nncn2c2c(Cl)ccc(F)c12 [Example 40, 4-[1-(9-chloro-6-fluoro-[1,2,4]triazolo[4,3-a]quinazolin-5-yl)-3,5-dihydro-2H-4,1-benzoxazepin-6-yl]-2-methyl-but-3-yn-2-ol] | 12.6 nM |  | 17.1 nM
